Legend:
aged C57BL/6J mice [1] = experiment: Glucose tolerance; assay type: in vivo, mouse; conditions: between the two treatment groups; data not shown
aged C57BL/6J mice [2] = experiment: Survival, body weight and food intake of aged mice
[3] = system: sir2Δfob1Δ mutant strain of yeast; experiment: RLS of sir2Δfob1Δ double deletion strain; assay type: cell-based, Saccharomyces cerevisiae; conditions: 25 μM; FIG. 2A
Protocol: The micromanipulation of the yeast cells was carried out as follows. Prior to analysis, yeast strains BY4741 (WT), BY4741-fob1Δ (fob1Δ), or BY4741-sir2Δfob1Δ (sir2Δfob1Δ) were plated onto fresh solid YEPD medium and grown at 30° C. for two days. Then, individual colonies were picked and grown in solid YEPD media containing: (1) dimethyl sulfoxide (DMSO), (2) 10, 25, or 50 μM PN6, or (3) 25 μM β-sitosterol at 30° C. overnight, and a small number of yeast cells were then plated onto a fresh YEPD plate for lifespan analysis. After overnight growth on the lifespan plates, the cells were arrayed on the plate using a micromanipulator and allowed to grow for approximately 3 hours. Virgin daughter cells were selected and subjected to lifespan analysis. In the lifespan experiments, the plates were incubated at 30° C. during the day and stored at 4° C. overnight. Each experiment consisted of more than 50 mother cells and was independently repeated three times.

HUVECs = experiment: Senescence-associated (SA)-β-gal staining; assay type: cell-based, human; conditions: HUVECs at PDL11, versus control without PN6; FIG. 3C
Protocol: For the population doubling (PD) assay, HUVECs (1×10^5 cells/3.5 cm dish) were propagated in the presence of DMSO (i.e., control) or PN6 (1 or 2 μM) until senescence (Day 41), and the cell numbers in each passage were recorded to generate a growth curve that represented the cumulative population doubling. The population doubling levels (PDLs) of HUVECs were calculated in every culture to indicate the proliferation capacity of HUVECs under the respective conditions. The population doublings (PDs) were estimated using the equation: PDL=3.32 (log (total viable cells at harvest/total viable cells at seeding). Also, HUVECs at passages PDL4 and PDL11 cultured in 0 μM (i.e., DMSO alone), 1 μM, or 2 μM PN6 were harvested for further analyses (e.g., western blot and SA-β-gal staining).
HUVECs at 90% confluency were collected, washed, and fixed with 2% formaldehyde and 0.2% glutaraldehyde for 5 minutes. The cells were then subjected to staining by incubation with a staining solution (40 mmol/l citric acid, sodium phosphate, pH 6.0, 1 mg/ml 5-bromo-4-chloro-3-isolyl-β-D-galactoside (X-gal, Sigma), 5 mmol/l potassium ferrocyanide, 5 mmol/l potassium ferricyanide, 150 mmol/l NaCl, and 2 mmol/l MgCl2) at 37° C. for 18-24 hours. The results of SA-β-gal-positive cells were observed by microscopy, and were counted for over 300 cells in at least three independent fields.

SIRT1 [4] = target: T1, SIRT1 (Homo sapiens, UniProt Q96EB6); experiment: Acetylation of p53 (K382) via UV irradiation, western blot, IMR90 cells; assay type: cell-based; conditions: FIGS. 2G-2H
T1 construct: endogenous in cells; host or cells: U2OS cells; IMR90 cells
T1 sequence (Q96EB6 1-747): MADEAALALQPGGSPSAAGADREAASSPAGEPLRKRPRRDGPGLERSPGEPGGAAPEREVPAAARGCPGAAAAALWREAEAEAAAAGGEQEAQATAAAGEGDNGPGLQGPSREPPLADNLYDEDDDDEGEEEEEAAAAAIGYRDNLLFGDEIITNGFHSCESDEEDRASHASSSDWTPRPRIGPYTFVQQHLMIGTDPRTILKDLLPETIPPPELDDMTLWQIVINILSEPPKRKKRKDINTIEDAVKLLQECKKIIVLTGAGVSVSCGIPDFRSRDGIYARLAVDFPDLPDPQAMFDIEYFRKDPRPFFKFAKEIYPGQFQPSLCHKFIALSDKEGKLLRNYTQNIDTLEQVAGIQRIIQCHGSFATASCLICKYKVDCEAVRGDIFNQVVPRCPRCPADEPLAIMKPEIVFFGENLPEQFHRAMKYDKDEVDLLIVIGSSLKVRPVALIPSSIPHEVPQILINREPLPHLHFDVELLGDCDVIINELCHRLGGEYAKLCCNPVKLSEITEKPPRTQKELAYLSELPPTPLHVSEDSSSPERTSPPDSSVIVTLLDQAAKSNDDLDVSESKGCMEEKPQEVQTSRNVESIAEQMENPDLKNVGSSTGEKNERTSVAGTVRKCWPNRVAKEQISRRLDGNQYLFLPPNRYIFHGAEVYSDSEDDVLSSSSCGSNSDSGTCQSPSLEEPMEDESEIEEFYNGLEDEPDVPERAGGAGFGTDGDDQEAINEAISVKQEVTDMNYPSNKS
Protocol: (§1) U2OS cells (1.2×10^5 cells/dish) or IMR90 cells (3.0×10^5 cells/dish) were seeded into a 3.5 cm culture dish, and incubated with 0, 10, 25, 50, or 100 μM PN6 for 16 hours, before subjected to UVB irradiation at 7.5 mJ/m^2 (for U2OS cells) or 5.0 mJ/m^2 (for IMR90 cells) for 4 hours.
(§2) Cells were harvested with a 1.25× Laemmli buffer and lysed in RIPA lysis buffer containing 1% of Triton X-100 and a protease inhibitor cocktail, and total protein concentrations were measured with a protein assay kit. Proteins in the samples of the lysates with the same amounts of total protein were separated by sodium dodecyl sulfate polyacrylamide gel electrophoresis (SDS-PAGE) (10% polyacrylamide gels) and analyzed by immunoblotting. Primary antibodies against p53ac (K382) (1:1,000), p21 (1:1,000), and 3-actin (1:200,000) were applied to detect the corresponding proteins. Horseradish peroxidase (HRP)-conjugated secondary antibodies against mouse IgG were then incubated with the membranes, and proteins were visualized by chemiluminescence according to the manufacturer's instructions. Protein quantification was performed by software.

SIRT1 [5] = target: T1, SIRT1; experiment: Acetylation of p53 (K382) via UV irradiation, western blot, U2OS cells; assay type: cell-based; conditions: 10-100 μM PN6, FIGS. 2C-2D
Protocol: as §1, §2

## CCC(CC[C@@H](C)C1CCC2C3CC(=O)[C@H]4C[C@@H](O)CC[C@]4(C)C3CC[C@@]21C)C(C)C (stereo in doubt) [PN6, (24S)-3β-hydroxy-5α-stigmastan-6-one]
Aged C57BL/6J mice [1]
  glucose tolerance: no significant differences
Aged C57BL/6J mice [2]; chow containing 50 mg/kg PN6, FIG. 4B
  trajectories of body weight: remained in a steady state
Aged C57BL/6J mice [2]; chow containing 50 mg/kg PN6, versus SD group, FIG. 4A
  lifespan of the aged mice: significantly increased the lifespan
Aged C57BL/6J mice [2]; versus SD group, entire course of the experiment, FIG. 4C
  food intake: did not diverge
[3]
  extension of lifespan of sir2Δfob1Δ mutant strain: unable to extend the lifespan
HUVECs
  number of SA-β-gal-positive senescent cells: decrease in the number
SIRT1 [4]
  SIRT1 activity / acetylation of P53 at K382: increased SIRT1 activity to reverse acetylation of P53 at K382
SIRT1 [5]
  degree of acetylation of P53 at K382: decreased in a dose-dependent manner

Reference: patent publication US20250009763A1, “METHODS FOR EXTENDING LIFESPAN AND/OR DELAYING AGING” (priority 2023, published 2025)
